SMILES strings stand for the structures.

Data on one molecule can be found in PMC5745756, “N,N-disubstituted azines attenuate LPS-mediated neuroinflammation in microglia and neuronal apoptosis via inhibiting MAPK signaling pathways” (BMC Neuroscience, 2017).

What all share (format): cell-based, murine
The test system of assay [1] is iNOS. In words: Western blot of LPS-induced iNOS expression in BV-2 cells. How it is done:
(§1) BV-2 cells were seeded in a 6-well plate at a density of 6 × 10^5 cells/well and exposed to LPS (100 ng/mL) in the presence or absence of compound 3 for required time. After treatment, cells were collected and lysed in cell lysis buffer (50 mM Tris–HCl, pH 8.0, 0.1% SDS, 150 mM NaCl, 1% NP-40, 0.02% sodium azide, 0.5% sodium deoxycholate, 100 µg/mL PMSF, and […]) for 24 h at 4 °C. The protein content was measured using a Bradford assay. Equal amounts of protein (30 µg) were separated using SDS-PAGE and transferred to a nitrocellulose membrane. […]
(§2) Fig. 2 Effect of compound 3 on LPS-induced iNOS and COX2 expression in BV-2 cells. […] Similarly, LPS activation was made for 24 h as chronic BV2 activation and the iNOS and COX-2 expression was measured (d). α-Tubulin was used as the loading control. […] After 24 h, the culture medium was subsequently collected to measure the quantity of PGE2 (e), IL-6 (f), and TNF-α (g) using ELISA analysis. […]
(In western blotting, separated proteins are transferred to a membrane and probed.)

For assay [2], the system named is COX-2. In words: Western blot of LPS-induced COX-2 expression in BV-2 cells. How it is done:
as §1, §2

The subject of assay [3] is IL-6. In words: ELISA of IL-6 in LPS-activated BV-2 culture medium. Particulars: LPS 24 h. How it is done: To measure TNF-α, IL-6, and PGE2, BV-2 cells were seeded in a 24-well plate at a density of 3 × 10^5 cells/well. The cells were treated with LPS (100 ng/mL) in the presence or absence of compound 3 for 24 h, and the media was collected and centrifuged. IL-6, TNF-α, and PGE2 produced in microglial culture supernatants […] were measured by competitive enzyme immunoassay kits (R&D systems, Minneapolis, MN, USA) in accordance with the manufacturer’s protocol.
Fig. 2 Effect of compound 3 on LPS-induced iNOS and COX2 expression in BV-2 cells. BV-2 cells were pretreated with various concentrations (5, 10, and 20 µM) of compound 3 for 30 min and activated with 100 ng/mL LPS. After 6 h, the cells were collected for analysis of iNOS and COX-2 expression using western blot analysis (a–c). Similarly, LPS activation was made for 24 h as chronic BV2 activation and the iNOS and COX-2 expression was measured (d). α-Tubulin was used as the loading control. The densitometric analysis of bands was performed as described in the methods section. After 24 h, the culture medium was subsequently collected to measure the quantity of PGE2 (e), IL-6 (f), and TNF-α (g) using ELISA analysis. […]
(ELISA stands for enzyme-linked immunosorbent assay.)

For assay [4], the system named is N2a cells. Kind of assay: TNF-α induced N2a cytotoxicity, direct treatment. Here is the method:
N2a cells were used as a representative neuronal cell line for the examination of apoptotic neuron viability using direct treatment of compound 3 with TNF-α activation as well as conditioned media (CM) from LPS-stimulated BV-2 cells treated with compound 3 [28]. This assay was performed following the methods described in our previous study, with slight modifications. To measure neuron viability, BV-2 cells were first seeded and treated with 100 ng/mL LPS in the presence or absence of compound 3. After 24 h, the CM was collected and transferred to N2a cells for a further 24 h. The cell viability of N2a cells was measured using the MTT assay. Well differentiated neuronal cells were used for the experimental purpose as shown in Additional file 1: Fig. S1.
Here, we have investigated whether the compound 3 has any direct protective effects on microglia and neurons against LPS and TNF-α induced direct toxicity. As the aim of this study is to check the effectiveness of compound 3 against neurodegenerative conditions, here we checked the effect of this compound to protect microglial cells against β-amyloid induced cytotoxicity as shown in Fig. 5a. […] LPS treatment was unable to induce cellular toxicity to N2a cells (Fig. 5b). […] Compound 3 mediated neuroprotection in N2a cells is due to the inhibition of proinflammatory cytokines produced by LPS activated microglia. […]

Setting [5] is: 5, 10 and 20 µM, 30 min pretreatment, LPS 100 ng/mL 6 h.

As to `COc1cc(/C=C/C=N/N=C/C=C/c2ccc(O)c(OC)c2)ccc1O` [Compound 3, 4,4′-(1E,1′E,3E,3′E)-3,3′-(hydrazine-1,2-diylidene)bis(prop-1-ene-1-yl-3-ylidene)bis(2-methoxyphenol)], in assay [1] (setting [5]), the “Expression of iNOS” value is reported as “significantly reduced”. Moreover, the “LPS induced iNOS activation, chronic” value in assay [1] (24 h chronic LPS activation) is recorded as “dramatically rescued”. The “Expression of COX-2” value in assay [2] (setting [5]) is on record as “significantly reduced”. For the same molecule, in assay [2] (24 h chronic LPS activation), the “LPS induced COX-2 activation, chronic” value is listed as “dramatically rescued”. Further, the IL-6 secretion entry in assay [3] (20 µM) is on record as “noticeable activity”; in assay [3] (5 and 10 µM) it was “did not significantly inhibit”. In addition, the “Cell viability of N2a cells against TNF-α mediated toxicity” value in assay [4] is on record as “increased cell viability”.
